The values that follow come from patent US10626126B2, “Compounds” (Pulmocide Limited, priority 2016, dated 2020).

Holding throughout (format): cell-based
One data set has as its system RSV A2 strain. As to the kind of experiment: RSV A2 induced CPE in HEp2 cells. To be noted: human respiratory syncytial virus; for IC50: HEp-2, 120 h, 5 days; for inhibition at 0.01 µg/mL: HEp-2, at 0.01 μg/mL. How it is done:
(§1) HEp2 cells were seeded (10^3/well/50 μL) in 384-well plates (Catalogue number 353962, BD Falcon, Oxford, UK) in 5% FBS-DMEM (containing 2 mM L-glutamine and 1 mM sodium pyruvate) one day before infection. […] Simultaneously, test compounds (0.5 μL DMSO solution) were added to 100 μL of HEp2 cell culture with virus solution to provide a final DMSO solution of 0.5%. […] Sigma-Aldrich, Dorset, UK) was added to each well and the plate incubated for a further 6 hr (37° C./5% CO2). The fluorescence of each well [545 nm (excitation)/590 nm (emission)] was determined using a multi-scanner (Clariostar: BMG, Buckinghamshire, UK). The percentage inhibition for each well was calculated and the IC50, IC75 and IC90 values were calculated from the concentration-response curve generated for each test compound.

The subject of a further data set is RSV B Washington strain. The data set is described as follows: RSV B induced CPE in HEp2 cells. To be noted: human respiratory syncytial virus; for IC50: HEp-2, 144 h, 6 days; for inhibition at 1 µg/mL: HEp-2, at 1 μg/mL; for inhibition at 0.1 µg/mL: HEp-2, at 0.1 μg/mL. As to the method:
as §1

Data set [1] is described as follows: Cell viability: resazurin assay. The settings on record: human, HEp2 cells. How it is done: HEp2 cells were seeded in 384-well plates (10^3/well/50 μL; BD Falcon Ref 353962) in FBS DMEM (5%, containing 2 mM L-glutamine and 1 mM sodium pyruvate) one day before experimentation. Serum-free DMEM (50 μL) was added to test wells, while for control wells the media was removed and sterile water (100 μL) added. Test compounds (0.5 μL DMSO solution) were added to give a final DMSO concentration of 0.5%. HEp2 cells were incubated with each test compound for 5 days (37° C./5% CO2 in 2.5% FBS) and then resazurin stock solution (5 μL; 0.03%) was added to each well and the plate incubated for a further 6 hr (37° C./5% CO2). The fluorescence of each well at 545 nm (excitation) and 590 nm (emission) was determined using a multi-scanner (Clariostar: BMG Labtech). The percentage loss of cell viability was calculated for each well relative to vehicle (0.5% DMSO) treatment. Note that any apparent increase in cell viability associated with test compound treatment relative to vehicle is consequently tabulated as a negative percentage. Where appropriate, a CC50 value was calculated from the concentration-response curve generated from the concentration-response curve for each test compound.
Background: Alamar Blue is a resazurin reagent that responds to reducing activity.

As usually defined, the IC50 is the concentration that inhibits the measured activity by half. A high value points to a need for much substance. Usually inhibition stands for the change of the read-out against control, counted positive when it falls. A high value points to a response far below the control. As usually defined, the CC50 is the concentration that lowers cell viability or growth by half. Read a low CC50 as harm at low concentration. In the data set with RSV A2 strain, `Cc1cnc(N2CC3(CCOCC3)C2)c(C(=O)Nc2ccc(C(=O)N3CCc4cc(C(=O)Nc5ccccc5)sc4-c4sccc43)cc2)c1` [Example 8, 4-(4-(5-methyl-2-(7-oxa-2-azaspiro[3.5]nonan-2-yl)nicotinamido)benzoyl)-N-phenyl-5,6-dihydro-4H-dithieno [3,2-b:2′,3′-d]azepine-8-carboxamide] displayed an IC50 of 0.68 nM and an inhibition at 0.01 µg/mL of 100%. In the data set with RSV B Washington strain, this molecule gave an IC50 of 137 nM and an inhibition at 1 µg/mL of 97%. In data set [1], this molecule yielded a CC50 at 5 days of more than 14500 nM.
As for `Cc1cnc(N2CC3(CCOCC3)C2)c(C(=O)Nc2ccc(C(=O)N3CCc4cc(C(=O)Nc5ccccc5F)sc4-c4sccc43)cc2)c1` [Example 9, N-(2-fluorophenyl)-4-(4-(5-methyl-2-(7-oxa-2-azaspiro[3.5]nonan-2-yl)nicotinamido)benzoyl)-5,6-dihydro-4H-dithieno[3,2-b:2′,3′-d]azepine-8-carboxamide], in the data set on RSV A2 strain, half-maximal inhibition (IC50) required 0.18 nM and the inhibition at 0.01 µg/mL came out at 100%. Moreover, in the data set on RSV B Washington strain, the IC50 was found to be 54 nM and the inhibition at 0.1 µg/mL came to 100%. For the same molecule, the CC50 at 5 days in data set [1] was more than 14100 nM.
In the data set with RSV A2 strain, `Cc1cnc(N2CC3(CCOCC3)C2)c(C(=O)Nc2ccc(C(=O)N3CCc4cc(C(=O)Nc5ccc(F)cc5F)sc4-c4sccc43)cc2)c1` [Example 10, N-(2,4-difluorophenyl)-4-(4-(5-methyl-2-(7-oxa-2-azaspiro[3.5]nonan-2-yl)nicotinamido)benzoyl)-5,6-dihydro-4H-dithieno[3,2-b:2′,3′-d]azepine-8-carboxamide] showed an IC50 of 0.75 nM and an inhibition at 0.01 µg/mL of 97%. For the same molecule, in the data set on RSV B Washington strain, the IC50 worked out at 123 nM and the inhibition at 1 µg/mL was 100%. Moreover, in data set [1], the CC50 at 5 days was more than 13800 nM.
In the data set on RSV A2 strain, `Cc1cnc(N2CC3(CCOCC3)C2)c(C(=O)Nc2ccc(C(=O)N3CCc4cc(C(=O)Nc5c(C)cccc5F)sc4-c4sccc43)cc2)c1` [Example 11, N-(2-fluoro-6-methylphenyl)-4-(4-(5-methyl-2-(7-oxa-2-azaspiro[3.5]nonan-2-yl)nicotinamido)benzoyl)-5,6-dihydro-4H-dithieno[3,2-b:2′,3′-d]azepine-8-carboxamide] gave a half-maximal inhibitory concentration (IC50) of 0.21 nM and an inhibition at 0.01 µg/mL of 100%. Besides, in the data set on RSV B Washington strain, half-maximal inhibition (IC50) required 8.3 nM and at 0.1 µg/mL the inhibition was 100%. The molecule further registered a CC50 at 5 days in data set [1] of more than 13900 nM.
For `Cc1cnc(N2CC3(CCOCC3)C2)c(C(=O)Nc2ccc(C(=O)N3CCc4cc(C(=O)Nc5c(Cl)cccc5Cl)sc4-c4sccc43)cc2)c1` [Example 13, N-(2,6-dichlorophenyl)-4-(4-(5-methyl-2-(7-oxa-2-azaspiro [3.5]nonan-2-yl)nicotinamido)benzoyl)-5,6-dihydro-4H-dithieno[3,2-b:2′,3′-d]azepine-8-carboxamide], in the data set with RSV A2 strain, the IC50 was determined as 0.14 nM and at 0.01 µg/mL the inhibition was 77%. In the data set with RSV B Washington strain, this molecule had an IC50 of 1.2 nM and an inhibition at 1 µg/mL of 80%. In addition, the CC50 at 5 days in data set [1] is more than 13200 nM.
With `Cc1cnc(N2CC3(CCOCC3)C2)c(C(=O)Nc2ccc(C(=O)N3CCc4cc(C(=O)Nc5c(O)cccc5F)sc4-c4sccc43)cc2)c1` [Example 15, N-(2-fluoro-6-hydroxyphenyl)-4-(4-(5-methyl-2-(7-oxa-2-azaspiro[3.5]nonan-2-yl)nicotinamido)benzoyl)-5,6-dihydro-4H-dithieno[3,2-b:2′,3′-d]azepine-8-carboxamide], in the data set with RSV A2 strain, the IC50 worked out at 0.3 nM and at 0.01 µg/mL the inhibition was 100%. In the data set with RSV B Washington strain, this molecule had an IC50 of 86 nM and an inhibition at 1 µg/mL of 90%. Besides, in data set [1], the CC50 at 5 days was more than 13800 nM.
In the case of `COc1cccc(F)c1NC(=O)c1cc2c(s1)-c1sccc1N(C(=O)c1ccc(NC(=O)c3cc(C)cnc3N3CC4(CCOCC4)C3)cc1)CC2` [Example 16, N-(2-fluoro-6-methoxyphenyl)-4-(4-(5-methyl-2-(7-oxa-2-azaspiro[3.5]nonan-2-yl)nicotinamido)benzoyl)-5,6-dihydro-4H-dithieno[3,2-b:2′,3′-d]azepine-8-carboxamide], in the data set on RSV A2 strain, the midpoint of inhibition, the IC50, lay at 0.18 nM and testing at 0.01 µg/mL gave an inhibition of 96%. In the data set on RSV B Washington strain, this molecule came in with a half-maximal inhibitory concentration (IC50) of 32 nM and an inhibition at 0.1 µg/mL of 100%. The molecule also registered a CC50 at 5 days in data set [1] of more than 13600 nM.
The like results for `Cc1cnc(N2CC3(CCOCC3)C2)c(C(=O)Nc2ccc(C(=O)N3CCc4cc(C(=O)Nc5c(F)cc(F)cc5F)sc4-c4sccc43)cc2)c1` [Example 17, 4-(4-(5-methyl-2-(7-oxa-2-azaspiro[3.5]nonan-2-yl)nicotinamido)benzoyl)-N-(2,4,6-trifluorophenyl)-5,6-dihydro-4H-dithieno[3,2-b:2′,3′-d]azepine-8-carboxamide] were, in that order, 0.17 nM, 92%, 19 nM, 100% and more than 13400 nM.
In the data set on RSV A2 strain, `Cc1cnc(N2CC3(CCOCC3)C2)c(C(=O)Nc2ccc(C(=O)N3CCc4cc(C(=O)Nc5c(F)cccc5F)sc4-c4sccc43)c(F)c2)c1` [Example 18, N-(2,6-difluorophenyl)-4-(2-fluoro-4-(5-methyl-2-(7-oxa-2-azaspiro[3.5]nonan-2-yl)nicotinamido)benzoyl)-5,6 dihydro-4H-dithieno[3,2-b:2′,3′-d]azepine-8-carboxamide] had an IC50 of 0.17 nM and an inhibition at 0.01 µg/mL of 100%. Moreover, in the data set on RSV B Washington strain, inhibition was half-maximal at 14 nM (IC50) and the inhibition at 0.1 µg/mL is 92%. Moreover, the CC50 at 5 days in data set [1] was more than 13400 nM.
In the data set with RSV A2 strain, `Cc1cnc(N2CC3(CCOCC3)C2)c(C(=O)Nc2ccc(C(=O)N3CCc4cc(C(=O)Nc5c(F)cccc5Cl)sc4-c4sccc43)c(F)c2)c1` [Example 19, N-(2-chloro-6-fluorophenyl)-4-(2-fluoro-4-(5-methyl-2-(7-oxa-2-azaspiro[3.5]nonan-2-yl)nicotinamido)benzoyl)-5,6-dihydro-4H-dithieno[3,2-b:2′,3′-d]azepine-8-carboxamide] returned an IC50 of 0.18 nM and an inhibition at 0.01 µg/mL of 93%. In the data set with RSV B Washington strain, this molecule had an IC50 of 29 nM and an inhibition at 1 µg/mL of 86%. The molecule further displayed a CC50 at 5 days in data set [1] of more than 13200 nM.
With `COc1cnc(N2CC3(CCOCC3)C2)c(C(=O)Nc2ccc(C(=O)N3CCc4cc(C(=O)Nc5c(F)cccc5F)sc4-c4sccc43)cc2)c1` [Example 20, N-(2,6-difluorophenyl)-4-(4-(5-methoxy-2-(7-oxa-2-azaspiro[3.5]nonan-2-yl)nicotinamido)benzoyl)-5,6-dihydro-4H-dithieno[3,2-b:2′,3′-d]azepine-8-carboxamide], in the data set with RSV A2 strain, the IC50 is 0.17 nM and 0.01 µg/mL produced 100% inhibition. In addition, in the data set with RSV B Washington strain, the IC50 was determined as 18 nM and the inhibition at 0.1 µg/mL turned out to be 100%. In data set [1], this molecule had a CC50 at 5 days of more than 13500 nM.
Turning to `Cc1ccc(C(=O)Nc2ccc(C(=O)N3CCc4cc(C(=O)Nc5c(F)cccc5F)sc4-c4sccc43)cc2)c(N2CC3(CCOCC3)C2)n1` [Example 21, N-(2,6-difluorophenyl)-4-(4-(6-methyl-2-(7-oxa-2-azaspiro [3.5]nonan-2-yl)nicotinamido)benzoyl)-5,6-dihydro-4H-dithieno[3,2-b:2′,3′-d]azepine-8-carboxamide], in the data set on RSV A2 strain, the IC50 was 0.37 nM and 0.01 µg/mL produced 91% inhibition. Also, in the data set on RSV B Washington strain, half-maximal inhibition (IC50) required 17 nM and testing at 0.1 µg/mL gave an inhibition of 91%. The CC50 at 5 days in data set [1] is more than 13800 nM.
In the data set on RSV A2 strain, `COc1ccc(C(=O)Nc2ccc(C(=O)N3CCc4cc(C(=O)Nc5c(F)cccc5F)sc4-c4sccc43)cc2)c(N2CC3(CCOCC3)C2)n1` [Example 22, N-(2,6-difluorophenyl)-4-(4-(6-methoxy-2-(7-oxa-2-azaspiro[3.5]nonan-2-yl)nicotinamido)benzoyl)-5,6-dihydro-4H-dithieno[3,2-b:2′,3′-d]azepine-8-carboxamide] had an IC50 of 1.7 nM and an inhibition at 0.01 µg/mL of 94%. In the data set on RSV B Washington strain, this molecule came in with an IC50 of 159 nM and an inhibition at 1 µg/mL of 94%. For the same molecule, the CC50 at 5 days in data set [1] is more than 13500 nM.
As for `Cc1cc(C(=O)Nc2ccc(C(=O)N3CCc4cc(C(=O)Nc5c(F)cccc5F)sc4-c4sccc43)c(F)c2)c(N2CC3(CCOCC3)C2)nc1C` [Example 23, N-(2,6-difluorophenyl)-4-(4-(5,6-dimethyl-2-(7-oxa-2-azaspiro[3.5]nonan-2-yl)nicotinamido)-2-fluorobenzoyl)-5,6-dihydro-4H-dithieno[3,2-b:2′,3′-d]azepine-8-carboxamide], in the data set with RSV A2 strain, half-maximal inhibition (IC50) required 0.67 nM and the inhibition at 0.01 µg/mL amounted to 96%. Moreover, in the data set on RSV B Washington strain, the IC50 was 70 nM and at 1 µg/mL the inhibition was 96%. This molecule had a CC50 at 5 days in data set [1] of more than 13200 nM.
